Reference: US20230128114A1, “METHODS AND COMPOSITIONS FOR TREATING OR PREVENTING AN INFLAMMATORY CONDITION” (priority 2020, published 2023)
Read-outs that look alike come from different tables or passages of the source.

How the values were obtained:
[1] = test system: collagen-induced arthritis; assay: Collagen-induced arthritis; type: in vivo, Lewis rats; set-up: key to Clinical score Day 24, relative reduction / Pannus score, relative reduction / Total histology score, relative reduction: fractional reduction vs vehicle control, sham-baseline subtracted; conditions: CBD 1 mg/kg, HCQ 2.5 mg/kg, alone or combined
Procedure: Female Lewis rats were challenged with porcine type-II collagen with Freund's adjuvant on Day 1 (0.2 mg/0.2 mL/rat) by subcutaneous injection at the base of the tail to induce arthritis. A booster injection at 0.1 mg/0.1 mL/rat) was administered on Day 7. On Day 16, rats were allocated into groups of six based on hind paw volume, with animals allocated into groups to provide a similar distribution of hind paw volumes.
Vehicle and active agents (i.e., CBD and hydroxychloroquine) alone or in combination were administered intraperitoneally (IP) once a day starting from Day 17 to Day 30, i.e., for a total of 14 consecutive days.
Disease was assessed by measuring hind paw volume with plethysmometer and using a qualitative severity score system as outlined in Table 32 on Day 1, 7, 10, 14, 16, 18, 20, 22, 24, 26, 28 and 30.
Post-termination on Day 30, blood was collected from all rats and analysed for levels of the inflammatory cytokines IL-1β, IL-6 and TNF-α by ELISA. Both hind paws were harvested, weighed and formalin-fixed for histopathology. Tissue was assessed to evaluate cartilage and bone destruction by pannus formation and mononuclear cell infiltration in synovial tissues according to the scoring matrices set out in Tables 33 and 34. A total histology score, being the sum of the pannus formation and mononuclear cell infiltration score, was also calculated.
For synergy analysis, data were baseline subtracted using sham treated […] (i.e., no collagen injection), before normalising the values relative to vehicle control. Synergy was calculated using the statistical methods described elsewhere herein.

LPS-induced sepsis [2] = assay: LPS-induced sepsis in mice, intraperitoneal administration: serum immune marker panel (Luminex/ELISA); type: in vivo, C57BL/6 mice
Procedure: (§1) Male C57BL/6 mice weighing 10-20 g were used. Vehicle and active agents (i.e., CBD and hydroxychloroquine) alone or in combination were administered intraperitoneally (IP) (Table 4) or orally (Table 5) at 1 hour before LPS (100 μg/100 μL/mouse) injected intravenously (IV). At 2 hours after LPS injection, blood was collected from all mice by cardiac puncture, sera processed and assayed for biomarkers using either the Th17-plex for IL-1β, IL-2, IL-10, IL-12 (p70), IFN-γ and TNF-α by Luminex, plus IL-6 and D-dimer by ELISA, or the 23-plex for IL-1α, IL-1β, IL-2, IL-3, IL-4, IL-5, IL-6, IL-9, IL-10, IL-12(p40), IL-12(p70), IL-13, IL-17A, Eotaxin, G-CSF, GM-CSF, IFN-γ, KC, MCP-1(MCAF), MIP-1α, MIP-1β, RANTES, and TNF-α by Luminex, plus IL-6 by ELISA. ANOVA followed by Dunnett's test was applied for comparison between vehicle and treatment groups. p<0.05 is considered significant.

LPS-induced sepsis [3] = assay: LPS-induced sepsis in mice, oral administration: serum 23-plex immune marker panel; type: in vivo, C57BL/6 mice
Procedure: as §1

[4] = test system: human peripheral blood mononuclear cells (PBMCs) stimulated with bacterial lipopolysaccharide (LPS); assay: Cytokine release from LPS-stimulated human PBMCs (checkerboard, Luminex), Bliss synergy; type: cell-based; conditions: PBMC
Procedure: The anti-inflammatory activity the combination of CBD and hydroxychloroquine was assessed by determining cytokine release from human peripheral blood mononuclear cells (PBMCs) stimulated with bacterial lipopolysaccharide (LPS) using a Luminex based assay. A 96-well microtitre plate-based checkerboard assay with seven concentrations (including the no drug control) of CBD and hydroxychloroquine were assessed in combination was used to determine the drug-drug interaction. Briefly, frozen PMBCs from two independent donors were thawed, diluted in culture medium, seeded into 96-well microtitre plates and incubated at 37° C., 5% CO2 for 1 hour prior to the addition of test compounds. After the addition of the test compounds the cells were returned to the incubator for 1 hour, after which LPS was added to the wells. Plates were incubated at 37° C., 5% CO2 for 24 hours. After 24 hours, cell culture supernatants were removed and analysed for cytokine levels using Luminex methodology according to manufacturers' instructions. All values had the vehicle background subtracted prior to further analysis. Three plates were set up in parallel using the PBMCs from the same donor. Inhibition of cytokine release was determined relative to the no treatment control (i.e., that was stimulated with LPS) and averaged across the three replicates. A cytotoxicity assay using AlmarBlue with the identical plate set up was performed in parallel.
Drug synergy was determined using the Bliss Independence method where the predicted effect of the drug combination is calculated using the equation: […]
Synergy values for each combination of drug concentrations were calculated using the Excess Over Bliss method (the difference between the observed and predicted inhibition) described by, e.g., Liu et al. (2018, Statistics in Biopharmaceutical Research, 10: 112-122, where a value greater than 0 is indicative of synergy and the higher the value the stronger the synergy.

[5] = test system: LPS-induced pulmonary inflammation; assay: LPS-induced pulmonary inflammation: BALF cytokines, synergy analysis; type: in vivo, C57BL/B6 mice; conditions: CBD 1 mg/kg, HCQ 25 mg/kg, alone or combined; observed
[6] = CBD 1, 5, 10, 25, 50 and 100 mg/kg IP

## C=C(C)[C@@H]1CCC(C)=C[C@H]1c1c(O)cc(CCCCC)cc1O [CBD, cannabidiol]
[1]; observed
  Clinical score Day 24, relative reduction: 0.21
  Pannus score, relative reduction: 0.07
  Paw volume Day 24, relative reduction: 0.04
  Total histology score, relative reduction: 0.11
[1]; serum
  Relative reduction in serum cytokine levels: IL-1β: 0.31
  Relative reduction in serum cytokine levels: IL-6: 0.50
LPS-induced sepsis [2]; CBD 5 mg/kg IP
  IFN-γ level vs vehicle group: Moderate reductions
LPS-induced sepsis [2]; CBD 10 mg/kg IP
  IFN-γ level vs vehicle group: moderate reduction
  IL-1β level vs vehicle group: moderate reduction
  IL-2 level vs vehicle group: moderate reduction
  IL-12(p70) level vs vehicle group: moderate reduction
  TNF-α level vs vehicle group: moderate reduction
LPS-induced sepsis [2]; CBD 25 mg/kg IP
  IFN-γ level vs vehicle group: Moderate reductions
  TNF-α level vs vehicle group: Moderate reductions
LPS-induced sepsis [2]; CBD 100 mg/kg IP
  IL-1β level vs vehicle group: significant (p<0.05) increase
  IL-10 level vs vehicle group: significant (p<0.05) increase
LPS-induced sepsis [2]; [6]
  LPS-induced D-dimer level vs vehicle control: dose-dependent increase
  LPS-induced IL-1β level vs vehicle control: dose-dependent increase
  LPS-induced IL-10 level vs vehicle control: dose-dependent increase
LPS-induced sepsis [2]; CBD 1-100 mg/kg IP
  Shape of dose response in the reduction of LPS-induced cytokine levels: bell-shaped dose response curve
LPS-induced sepsis [3]; CBD 1 mg/kg PO alone
  Effect on biomarker levels: little or no effect
LPS-induced sepsis [3]; CBD 10 mg/kg PO alone
  LPS-induced IL-1α release vs vehicle group: moderate suppression
  LPS-induced IL-1β release vs vehicle group: moderate suppression
  LPS-induced IL-2 release vs vehicle group: moderate suppression
  LPS-induced IL-4 release vs vehicle group: moderate suppression
  LPS-induced IL-5 release vs vehicle group: moderate suppression
  LPS-induced IL-9 release vs vehicle group: moderate suppression
[4]; Donor 1, CBD 5.00 μg/mL alone, read-out: FIE (fractional inhibitory effect), IL-1α release
  inhibition at 5 µg/mL: 40%
[4]; Donor 1, CBD 5.00 μg/mL alone, read-out: FIE (fractional inhibitory effect), IL-1β release
  inhibition at 5 µg/mL: 38%
[4]; Donor 1, CBD 5.00 μg/mL alone, read-out: FIE (fractional inhibitory effect), IL-6 release
  inhibition at 5 µg/mL: 8%
[4]; Donor 1, CBD 5.00 μg/mL alone, read-out: FIE (fractional inhibitory effect), MIP-1α release
  inhibition at 5 µg/mL: 12%
[4]; Donor 1, CBD 5.00 μg/mL alone, read-out: FIE (fractional inhibitory effect), TNF-α release
  inhibition at 5 µg/mL: 5%
[4]; Donor 2, CBD 5.00 μg/mL alone, read-out: FIE (fractional inhibitory effect), IL-1α release
  inhibition at 5 µg/mL: 28%
[4]; Donor 2, CBD 5.00 μg/mL alone, read-out: FIE (fractional inhibitory effect), IL-1β release
  inhibition at 5 µg/mL: 13%
[4]; Donor 2, CBD 5.00 μg/mL alone, read-out: FIE (fractional inhibitory effect), IL-6 release
  inhibition at 5 µg/mL: 9%
[4]; Donor 2, CBD 5.00 μg/mL alone, read-out: FIE (fractional inhibitory effect), MIP-1α release
  inhibition at 5 µg/mL: 0%
[4]; Donor 2, CBD 5.00 μg/mL alone, read-out: FIE (fractional inhibitory effect), TNF-α release
  inhibition at 5 µg/mL: 7%
[5]
  IL-6, relative inhibition of cytokine release (BALF): 0.15
